Test systems include M14 melanoma; NCI/ADR-RES ovarian; SF-539 CNS; MDA-MB-231 breast; RPMI-8226 leukemia; HCC-2998 colon; T-47D breast; SF-295 CNS; HOP-92 NSCLC; SW-620 colon.
Assay in all cases: inhibition of tumour cell growth, NCI panel, 48 h

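Protocol summary: plate cells (96-well), add compound at 5 concentrations, incubate 48 h, interpolate endpoints linearly. Abbreviation: GI50, concentration required for 50% inhibition of growth. TGI is the concentration that stops growth completely.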

For `C/C=C(\C)C(=O)O[C@H]1C=CC(=O)O[C@H]1COC(=O)[C@H](C)O`, the GI50 in the experiment on M14 melanoma is 7510 nM; with NCI/ADR-RES ovarian it was 12.1 µM; in the experiment on SF-539 CNS, 9730 nM; with MDA-MB-231 breast it was 12100 nM; in the experiment on RPMI-8226 leukemia it was 3200 nM; with HCC-2998 colon, 14900 nM. Moreover, the GI50 in the experiment on T-47D breast was 3810 nM; in the experiment on SF-295 CNS, 13.1 µM; in the experiment with HOP-92 NSCLC, 7600 nM; in the experiment on SW-620 colon it was 4280 nM. Besides, the TGI turned out to be 23.1 µM in the experiment with M14 melanoma; 32.6 µM with NCI/ADR-RES ovarian; 23.3 µM in the experiment on SF-539 CNS; 28.3 µM in the experiment with MDA-MB-231 breast; 14.5 µM in the experiment on RPMI-8226 leukemia; 30 µM in the experiment on HCC-2998 colon. Also, the TGI in the experiment on T-47D breast stood at 19.2 µM; with SF-295 CNS it was 28.9 µM; in the experiment on HOP-92 NSCLC it was 21.1 µM; in the experiment on SW-620 colon it was 15.1 µM.

In the case of `CC(C)C(=O)c1c(C(F)(F)F)n([O-])c2ccccc2[n+]1=O`, the GI50 is 1740 nM in the experiment on M14 melanoma; 1.74 µM in the experiment with NCI/ADR-RES ovarian; 1810 nM in the experiment on SF-539 CNS; 1580 nM in the experiment on MDA-MB-231 breast; 178 nM in the experiment on RPMI-8226 leukemia; 1740 nM in the experiment with HCC-2998 colon. Also, the GI50 in the experiment with T-47D breast was 827 nM; with SF-295 CNS, 0.553 µM; in the experiment with HOP-92 NSCLC it was 466 nM; in the experiment with SW-620 colon, 4340 nM. The TGI is 3.76 µM in the experiment on M14 melanoma; 5.46 µM with NCI/ADR-RES ovarian; 5.17 µM in the experiment with SF-539 CNS; 3.58 µM in the experiment with MDA-MB-231 breast; 1.31 µM with RPMI-8226 leukemia; 4.04 µM with HCC-2998 colon. Moreover, the TGI with T-47D breast is 3.49 µM; with SF-295 CNS it was 2 µM; in the experiment on HOP-92 NSCLC, 1.62 µM; in the experiment on SW-620 colon, 17.5 µM.

Turning to `Cc1sc2c(c1C)C(c1ccc(Cl)cc1)=N[C@@H](CC(=O)NCCCN1CCN(C)CC1)c1nnc(C)n1-2`, the GI50 was 1240 nM in the experiment with M14 melanoma; above 100 µM in the experiment with NCI/ADR-RES ovarian; 607 nM with SF-539 CNS; 198 nM in the experiment with MDA-MB-231 breast; 41.7 nM in the experiment with RPMI-8226 leukemia; 2550 nM with HCC-2998 colon. Besides, the GI50 in the experiment on T-47D breast was 287 nM; in the experiment on SF-295 CNS it was 8.12 µM; in the experiment with HOP-92 NSCLC it was 32 nM; with SW-620 colon, above 100000 nM. Also, the TGI in the experiment with M14 melanoma is above 100 µM; in the experiment on NCI/ADR-RES ovarian it was above 100 µM; in the experiment with SF-539 CNS, above 100 µM; with MDA-MB-231 breast it was above 100 µM; with RPMI-8226 leukemia, 5.38 µM; with HCC-2998 colon it was above 100 µM. Besides, the TGI with T-47D breast is above 100 µM; in the experiment on SF-295 CNS, above 100 µM; in the experiment with HOP-92 NSCLC, above 25.2 µM; in the experiment on SW-620 colon, above 100 µM.

Regarding `Cn1c(-c2c(N)n(Cc3ccc(F)cc3)c3nc(C#N)c(C#N)nc23)nc2ccccc21`, the GI50 in the experiment on M14 melanoma was 3480 nM; in the experiment with NCI/ADR-RES ovarian, 7.56 µM; in the experiment on SF-539 CNS, 13200 nM; in the experiment on MDA-MB-231 breast, 5170 nM; with RPMI-8226 leukemia it was 1350 nM; with HCC-2998 colon it was 1350 nM. Moreover, the GI50 is 1080 nM with T-47D breast, 7.68 µM in the experiment on SF-295 CNS, 1630 nM with HOP-92 NSCLC and 2470 nM in the experiment with SW-620 colon. Also, the TGI with M14 melanoma was above 50 µM; in the experiment with NCI/ADR-RES ovarian, 22.5 µM; in the experiment on SF-539 CNS, above 50 µM; in the experiment with MDA-MB-231 breast, 38.5 µM; with RPMI-8226 leukemia, 7.17 µM; in the experiment with HCC-2998 colon, 3.05 µM. The TGI in the experiment on T-47D breast was determined as 4.61 µM; with SF-295 CNS it was 32.5 µM; with HOP-92 NSCLC, 18.4 µM; in the experiment with SW-620 colon, 21 µM.

With `CCC1(c2ccc(N)cc2)CCC(=O)NC1=O` (stereo not given), the TGI is above 4560 µM with M14 melanoma; 4820 µM in the experiment on NCI/ADR-RES ovarian; above 5000 µM in the experiment on SF-539 CNS; above 5000 µM with MDA-MB-231 breast; above 5000 µM with RPMI-8226 leukemia; above 5000 µM in the experiment with HCC-2998 colon. Moreover, the TGI was above 4730 µM in the experiment with T-47D breast, above 3870 µM with SF-295 CNS, 3560 µM in the experiment with HOP-92 NSCLC and above 3970 µM in the experiment with SW-620 colon.

On to `C=CC(=O)Nc1cccc(Oc2nc(Nc3ccc(N4CCN(C)CC4)cc3OC)ncc2Cl)c1`, for which the GI50 with M14 melanoma is 1820 nM; with NCI/ADR-RES ovarian, 1.88 µM; with SF-539 CNS, 1980 nM; in the experiment on MDA-MB-231 breast it was 1940 nM; with RPMI-8226 leukemia, 1970 nM; with HCC-2998 colon it was 1720 nM. Also, the GI50 with T-47D breast is 2870 nM; in the experiment on SF-295 CNS, 2.21 µM; in the experiment on HOP-92 NSCLC it was 743 nM; in the experiment on SW-620 colon, 1470 nM. In addition, the TGI with M14 melanoma turned out to be 3.47 µM; in the experiment with NCI/ADR-RES ovarian, 5.69 µM; with SF-539 CNS, 3.72 µM; in the experiment on MDA-MB-231 breast, 4.12 µM; in the experiment with RPMI-8226 leukemia, 5.1 µM; in the experiment with HCC-2998 colon, 3.35 µM. The TGI in the experiment on T-47D breast was 15.5 µM; in the experiment with SF-295 CNS, 5.81 µM; in the experiment on HOP-92 NSCLC, 2.55 µM; in the experiment on SW-620 colon it was 2.96 µM.

With `C=C1C(=O)O[C@H]2[C@H]1CC/C(CNC(=O)/C=C/c1ccccc1F)=C\CC[C@@]1(C)O[C@@H]21`, the GI50 in the experiment with M14 melanoma was 1340 nM; in the experiment with NCI/ADR-RES ovarian it was 3.1 µM; with SF-539 CNS, 1260 nM; in the experiment with MDA-MB-231 breast, 1930 nM; with RPMI-8226 leukemia, 1410 nM; in the experiment on HCC-2998 colon it was 1880 nM. In addition, the GI50 in the experiment on T-47D breast was 1740 nM; with SF-295 CNS, 7.16 µM; in the experiment on HOP-92 NSCLC, 1620 nM; in the experiment on SW-620 colon, 487 nM. Also, the TGI is 3.05 µM in the experiment on M14 melanoma; 26.9 µM in the experiment with NCI/ADR-RES ovarian; 2.94 µM in the experiment on SF-539 CNS; 4.44 µM in the experiment on MDA-MB-231 breast; 5.84 µM in the experiment on RPMI-8226 leukemia; 3.59 µM with HCC-2998 colon. In addition, the TGI is 4.53 µM in the experiment on T-47D breast, 20.9 µM with SF-295 CNS, 4.13 µM with HOP-92 NSCLC and 1.66 µM in the experiment with SW-620 colon.

Turning to `CN(C)Cc1c(C(=O)NCCOc2ccc(C(=O)NO)cc2)oc2ccccc12`, the GI50 in the experiment with M14 melanoma is 223 nM; in the experiment with NCI/ADR-RES ovarian it was 0.306 µM; with SF-539 CNS, 385 nM; in the experiment with MDA-MB-231 breast, 392 nM; in the experiment on RPMI-8226 leukemia, 138 nM; with HCC-2998 colon it was 220 nM. In addition, the GI50 with T-47D breast is 163 nM; with SF-295 CNS it was 0.225 µM; in the experiment on HOP-92 NSCLC, 60.3 nM; with SW-620 colon, 166 nM. Moreover, the TGI with M14 melanoma turned out to be 1.68 µM; with NCI/ADR-RES ovarian, 4.27 µM; in the experiment on SF-539 CNS, 18 µM; in the experiment on MDA-MB-231 breast it was 18.2 µM; with RPMI-8226 leukemia it was 0.662 µM; with HCC-2998 colon, 0.83 µM. Moreover, the TGI in the experiment on T-47D breast stood at 0.777 µM; in the experiment with SF-295 CNS, 0.713 µM; with HOP-92 NSCLC, 0.424 µM; in the experiment on SW-620 colon, 0.547 µM.

For the origin of these results see PubChem BioAssay (NCI).
